Test results as given in patent publication US5656654A, “Arylidene and heteroarylidene oxindole derivatives and process for their preparation” (Farmitalia Carlo Erba S.r.l., priority 1993, dated 1997).

How the values were obtained:
[1] = tested on: K562 cells (human chronic myeloid leukemia); experiment: K562 cell growth inhibition assay ([^3-H]-Thymidine, headed In Vivo ASSAY); type: cell-based; settings: K562 cells in suspension, 66 h, with or without 10% foetal calf serum
Experimental: K562 cell growth inhibition assay. 1 ml of K562 cells, grown in suspension, were incubated for 66 h with or without 10% foetal calf serum in the presence of 1 μCi of [^3 -H]-Thymidine. Cells were harvested, washed three times in cold PBS and treated with 5% trichloroacetic acid for 5 min on ice. After a wash in ethanol: ether 2:1, the DNA was extracted by 0.5N NaOH for 2 h at room temperature. The extract was counted in a liquid scintillation counter.
(§1) The inhibitory activity data for a representative group of compounds according to the present invention, obtained both in the in vitro p45 v-abl kinase assay and in the in vivo human chronic myeloid leukemia K 562 cell growth inhibition assay described above, are set out in following Table 1.

p45 v-abl kinase = target: T1, p45 v-abl kinase (Abelson murine leukemia virus, UniProt P00521); experiment: p45 v-abl Kinase Assay ((Val^5)-Angiotensin II phosphorylation, in vitro); type: biochemical
T1 construct: by cited methods bacterially expressed (E. coli)
T1 sequence (P00521 whole entry): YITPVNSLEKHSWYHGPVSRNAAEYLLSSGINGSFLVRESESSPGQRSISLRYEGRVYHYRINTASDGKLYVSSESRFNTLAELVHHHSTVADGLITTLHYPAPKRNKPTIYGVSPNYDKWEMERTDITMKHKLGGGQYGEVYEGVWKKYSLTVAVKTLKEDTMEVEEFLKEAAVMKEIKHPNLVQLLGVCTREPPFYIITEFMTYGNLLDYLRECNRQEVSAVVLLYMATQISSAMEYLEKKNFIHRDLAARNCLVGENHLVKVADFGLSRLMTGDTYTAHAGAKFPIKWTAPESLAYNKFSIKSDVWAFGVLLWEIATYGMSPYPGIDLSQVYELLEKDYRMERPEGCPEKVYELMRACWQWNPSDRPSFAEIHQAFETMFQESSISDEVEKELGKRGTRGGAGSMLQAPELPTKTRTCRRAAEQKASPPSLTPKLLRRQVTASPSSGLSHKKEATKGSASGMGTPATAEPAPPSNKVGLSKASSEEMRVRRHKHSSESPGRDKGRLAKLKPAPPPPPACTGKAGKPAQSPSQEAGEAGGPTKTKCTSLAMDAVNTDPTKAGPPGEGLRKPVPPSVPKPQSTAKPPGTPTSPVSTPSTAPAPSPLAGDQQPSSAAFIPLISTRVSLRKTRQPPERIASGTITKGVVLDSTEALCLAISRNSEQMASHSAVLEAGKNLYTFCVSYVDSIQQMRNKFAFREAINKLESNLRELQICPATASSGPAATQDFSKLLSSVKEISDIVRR
Experimental: p45 v-abl kinase purification. The enzyme used in our test was the p45 v-abl tyrosine kinase which represents the catalytic domain of the Abelson tyrosine kinase (isolated from the Abelson murine leukemia virus). The p45 v-abl kinase was produced and isolated as described by Wang et al. in J. Biol. Chem. 260, 64 (1985) and by Ferguson et al. in J. Biol. Chem. 260, 3652 (1985) and in Biochem. J. 257, 321 (1989).
p45 v-abl Kinase Assay. (Val^5)-Angiotensin II phosphorylation was performed by incubation with 40 ng of purified abl-kinase and (γ-^32 P)-ATP, in 50 μl of buffer containing Tris-HCl 25 mM, pH 8.0, MgCl2 10 mM and dithiothreitol 0.1 mM (kinase buffer). The reaction mixture was incubated for the indicated time at 30° C. and the reaction stopped by adding 50 μl of 5% trichloroacetic acid. After a brief incubation on ice, tubes were centrifuged. The supernatants were spotted on phosphocellulose paper squares (Whatman P-81) and washed extensively in acetic acid. The radioactivity bound to dried phosphocellulose squares was measured in a liquid scintillation counter. IC50 values were calculated from triplicate determinations of each experimental point. Each inhibitor was tested at concentrations ranging from […] in the presence of fixed concentrations of peptide (2 mM) and ATP (50 μM).
as §1

| Compound | IC50 [1] | IC50 (p45 v-abl kinase) |
| --- | --- | --- |
| Nc1ccc2c(c1)C(=Cc1ccc(O)c3ncccc13)C(=O)N2 [FCE 27518, 5-amino-3-[(8'-hydroxy-5'-quinolyl)methylene]-2-oxindole] | 1.2 µM | 6.9 µM |
| COc1ccc2[nH]cc(C=C3C(=O)Nc4ccccc43)c2c1 [FCE 27564, 3-[(5'-methoxy-3'-indolyl)methylene]-2-oxindole] | 4.15 µM | 0.8 µM |
| N#Cc1ccc2[nH]cc(C=C3C(=O)Nc4ccccc43)c2c1 [FCE 27565, 3-[(5'-cyano-3'-indolyl)methylene]-2-oxindole] |  | 2.4 µM |
| Cc1[nH]c2ccccc2c1C=C1C(=O)Nc2ccccc21 [FCE 27566, 3-[(2'-methyl-3'-indolyl)methylene]-2-oxindole] | 2.2 µM | 15.6 µM |
| O=C1Nc2ccccc2C1=Cc1c[nH]c2ccc(O)cc12 [FCE 27866, 3-[(5'-hydroxy-3'-indolyl)methylene]-2-oxindole] | 8.75 µM | 5.2 µM |
| O=C1Nc2ccc(Br)cc2C1=Cc1ccc(O)c2ncccc12 [FCE 27996, 5-bromo-3-[(8'-hydroxy-5'-quinolyl)methylene]-2-oxindole] | 0.62 µM | 2.6 µM |
| O=C1Nc2ccc(O)cc2C1=Cc1ccc(O)c2c1CCCC2 [FCE 28337, 5-hydroxy-3-[(4'-hydroxy-1'-tetralyl)methylene]-2-oxindole] | 11.5 µM | 2.32 µM |
| COc1ccc2[nH]cc(C=C3C(=O)Nc4ccc(O)cc43)c2c1 [FCE 28359, 5-hydroxy-3-[(5'-methoxy-3'-indolyl)methylene]-2-oxindole] | 8.15 µM | 0.39 µM |
| Nc1ccc2c(c1)C(=Cc1cc(O)c3c(c1O)CCCC3)C(=O)N2 [FCE 28360, 5-amino-3-[(1',4'-dihydroxy-2'-tetralyl)methylene]-2-oxindole] | 6.25 µM | 4.7 µM |
| COc1ccc2[nH]cc(C=C3C(=O)Nc4ccc(N)cc43)c2c1 [FCE 28436, 5-amino-3-[(5'-methoxy-3'-indolyl)methylene]-2-oxindole] | 14.5 µM | 0.305 µM |
